Melting point data for 20 compounds are collected here from a melting point compilation (Tetko et al.).

Residues, ends and D or L forms follow the SMILES beside them. *: point of attachment. Boc = CC(C)(C)OC(=O)*; Bn = c1ccc(C*)cc1

With `COc1cc(C(=O)c2c(C)c(C(=O)OCc3ccccc3)c3cc(N(C)C)ccn23)ccc1[N+](=O)[O-]`, the melting point (usually the temperature, or range, at which the solid turns liquid) was 167 °C.

`COc1cc(C(=O)NC2OC(COC(C)=O)C(OC3OC(COC(C)=O)C(OC(C)=O)C(OC(C)=O)C3OC(C)=O)C(OC(C)=O)C2OC(C)=O)ccc1Cl` (stereo not given) showed a melting point of 106 to 110 °C.

`CCCCCCCCCCCCCCCCCN1C(=O)C2=C(c3ccc(Br)s3)N(CCCCCCCCCCCCCCCCC)C(=O)C2=C1c1ccc(Br)s1` displayed a melting point of 166 to 167 °C.

For `CC(NC(=O)C(CC(C(=O)O)C(C)(C)C)NC(=O)C(CC(C(=O)O)C(C)(C)C)NC(=O)C(NC(=O)C(N)C(C)C)C(C)C)C(=O)NC(CC(C(=O)O)C(C)(C)C)C(=O)NC(CC(N)=O)C(=O)OC(C)(C)C` (stereo not given), the melting point lay in the range of 229 to 231 °C.

Consider `Cc1cc(C(F)(F)F)ccc1Cn1nc(OC(C)C)cc1CCCOc1ncccc1CC(=O)O`, for which the melting point fell in the range of 105 to 107 °C.

Take `CCCC(=O)c1cnc2c(C(C)O)cccc2c1Nc1ccccc1C` (stereo not given): the melting point is 140 to 142 °C.

`Cc1cc(-n2ccnc2)c2cccc(OCc3c(Cl)ccc(S(=O)(=O)N4CCCC4C(=O)NCC4CCN(C(=O)CCCC(=O)OC(C)(C)C)CC4)c3Cl)c2n1` (stereo not given) came in with a melting point of 112 °C.

For the compound `CC(C)CC1C(=O)OC(Cc2ccc(OCc3ccco3)cc2)C(=O)N(C)C(CC(C)C)C(=O)OC(C)CN(C)C(CC(C)C)C(=O)OC(Cc2ccc(OCc3ccco3)cc2)C(=O)N(C)C(CC(C)C)C(=O)OC(C)CN1C` (stereo not given), the melting point lay within 116 to 119 °C.

The compound `CC(NC(=O)C(Cc1ccc(OCc2ccccc2)cc1)NC(=O)C(COCc1ccccc1)NC(=O)C(Cc1c[nH]c2ccccc12)NC(=O)OC(C)(C)C)C(=O)O` (stereo not given) (Boc-WS(Bn)Y(Bn)A-OH; configuration not given here) gave a melting point of 93 to 94 °C.

Compound `Cc1c(O)cc(C(C)(C)C)c(O)c1C(=O)Nc1ccc(S(=O)(=O)C(F)(F)F)cc1Cl` showed a melting point of 163 to 166 °C.

`CC(=O)OCC1OC(OC2C(COC(C)=O)OC(OC3C(CO)OC(OCCBr)C(OC(=O)c4ccccc4)C3OC(=O)c3ccccc3)C(OC(C)=O)C2OC(C)=O)C(OC(C)=O)C(OC(C)=O)C1OC(C)=O` (stereo not given) had a melting point of 218 to 220 °C.

Compound `CCCCCCC1(CCCCCC)c2cc(-c3ccc4c(c3)nc(N)c3nc(COCC)n(CC(C)(C)O)c34)ccc2-c2ccc(-c3ccc4c(c3)nc(N)c3nc(COCC)n(CC(C)(C)O)c34)cc21` gave a melting point of 261 to 265 °C.

`CS(=N)(=O)Cc1ccc(Cl)nc1` (stereo not given): the melting point is 134 to 136 °C.

`CN(CC(O)C(CC1CCCCC1)NC(=O)C(Cc1c[nH]cn1)NC(=O)C(CC(=O)C(C)(C)C)Cc1ccccc1)C(Cc1c[nH]cn1)NC(=O)C(CC(=O)C(C)(C)C)Cc1ccccc1` (stereo not given) returned a melting point of 118 °C.

As for `CC(C)[C@H](NC(=O)N(C)Cc1csc(N)n1)C(=O)N[C@@H](Cc1ccccc1)C[C@H](O)[C@H](Cc1ccccc1)NC(=O)[C@@H](NC(=O)N(C)Cc1csc(N)n1)C(C)C`, the melting point was 110 to 114 °C.

`CC(=O)N1C(C)(C)CC(OC(=O)C(Cc2cc(C(C)(C)C)c(O)c(C(C)(C)C)c2)(Cc2cc(C(C)(C)C)c(O)c(C(C)(C)C)c2)C(=O)OC2CC(C)(C)N(C(C)=O)C(C)(C)C2)CC1(C)C` displayed a melting point of 202 °C.

In turn, `CC[C@H](C)CNC(=O)[C@@H](C[C@H](O)[C@H](CC1CCCCC1)NC(=O)[C@H](Cc1cscn1)NC(=O)[C@H](Cc1cccc2ccccc12)NC(=O)CN1CCOCC1)C(C)(C)O` returned a melting point of 141 to 143 °C.

`O=S(=O)(C(/C=C/c1ccc(Br)cc1)c1ccc(I)cc1)C(/C=C/c1ccc(Br)cc1)c1ccc(I)cc1` (stereo not given) showed a melting point of 217 to 219 °C.

In turn, `O=S1(=O)c2ccccc2N(c2ccccc2)c2ccc(C=Cc3ccc(-c4ccc(C=Cc5ccc6c(c5)S(=O)(=O)c5ccccc5N6c5ccccc5)cc4)cc3)cc21` yielded a melting point of 392 °C.

Compound `CC(C)(C)c1cc(-c2nnc(NC(=N)N)o2)cc(C(C)(C)C)c1O` gave a melting point of 223 to 224 °C.
